Structures are written as SMILES. Calls of active or inactive are those of the source. The calls are words filed in the database; no cut-off is given here.

Data set [1] can be described thus: Solubility of compound in culture media. In kind it is physicochemical.
Data set [2] concerns Mesenchymal stem cells. Kind of data set: Cytotoxicity against human derived mesenchymal stem cells assessed as cell viability upto 20 uM measured after 4 days. In kind it is toxicity, cell-based. Particulars: 96 h, time 4 day.
Data set [3] concerns Mesenchymal stem cells. Briefly: Effect on cell cycle progression in human derived mesenchymal stem cells upto 20 uM measured after 4 days. In kind it is toxicity, cell-based. Particulars: 96 h, time 4 day.
Data set [4] relates to Mesenchymal stem cells. Kind of data set: Induction of neural differentiation in human derived mesenchymal stem cells assessed as neuron formation measured TuJI expression by immunohistochemical analysis. In kind it is functional, cell-based. Particulars: dose 2-5 µM.
Data set [5] in a line: Induction of neural differentiation in human derived mesenchymal stem cells assessed as neuron formation at 5 uM measured TuJI expression by immunohistochemical analysis relative to control. In kind it is functional.

For `CN1CCN(C(=O)NCc2csc(-c3ccccc3)n2)CC1`, the solubility result in data set [1] is reported as “Soluble”. In addition, the Activity result in the data set on Mesenchymal stem cells [2] and with Mesenchymal stem cells [3] was “Non-Toxic” throughout. In the data set with Mesenchymal stem cells [4], the result was Active.

Regarding `O=C(NCc1csc(-c2ccccc2)n1)N1CCOCC1`, in data set [1], the solubility result is given as “Soluble”. For the same compound, the Activity entry with Mesenchymal stem cells [2] was “Non-Toxic”; in the data set with Mesenchymal stem cells [3], “Non-Toxic”; with Mesenchymal stem cells [4] (DDE = dose-dependent effect), “Dde”. For the same compound, the “fold change (FC)” value in data set [5] is listed as 2.

(Values after ChEMBL document CHEMBL5126565, “Discovery of (2-phenylthiazol-4-yl)urea derivatives that induce neuronal differentiation from mesenchymal stem cells” (Bioorg Med Chem Lett, 2022).)
